Assay results taken from US20230092005A1, “COMPOSITIONS AND METHODS FOR TREATING CANCER AND TUMOR” (OBLATO, INC., priority 2020, published 2023).
Values belong to the compound of their own block, whether it stands above or below them.

Assays:
Solubility in water = assay type: physicochemical; conditions: free acid
Protocol: In certain embodiments, the 2,4-ds-PBN can be prepared by a two-step reaction sequence. For example, tertiary butyl […] (2-methyl-2-nitropropane) can be converted to the corresponding n-hydroxylamine using a suitable catalyst such as an activated zinc/acetic acid catalyst or an aluminum/mercury amalgam catalyst. This reaction can be carried out in about 0.5 to 12 hours and especially about 2 to 6 hours or so at a temperature of about 15-100° C. in a liquid reaction medium such as alcohol/water mixture in the case of the zinc catalyst or an ether/water mixture in the case of the aluminum amalgam catalyst. The freshly formed hydroxylamine can be reacted with 4-formyl-1,3-benzenedisulfonic acid, with a slight excess of the amine being used. This reaction can be carried out at similar temperature conditions. This reaction can be completed in from about 10 to about 24 hours. The formed material through the two reactions can be the free acid and be characterized by a molecular weight of 337.3 g/mole. In some embodiments, the formed material can be a white powdery material that decomposes upon heating. In non-limiting embodiments, the formed material can be characterized by solubility in water of greater than 1 gram/ml and a^1H NMR spectrum in D2O of 8.048 ppm (dd, 8.4, 1.7 Hz); 8.836 ppm (d, 8.4 Hz); 8.839 ppm (d, 1.7 Hz); 8.774 ppm (s).

[1] = test system: human A549 lung cancer xenografts; test: Anti-cancer efficacy in nude mice carrying human A549 lung cancer xenografts (tumor volume, tumor weight, growth inhibition rate); assay type: in vivo, BALB/c Nude mouse; conditions: for Tumor volume (mean): G5, 2 mg/kg I.P. once a week
Protocol: The anti-cancer efficacy of OKN-007 was assessed after oral administration in nude mice carrying human A549 lung cancer xenografts implanted subcutaneously in the flank. Human lung cancer cell line, A549 was used. […] The frozen cells were thawed in a water bath. Cells were placed in a tube containing the medium and centrifuged (1,000 rpm, 5 minutes) to discard the supernatant. After re-suspending with the culture medium, cells were placed in a cell culture flask and incubated in a 5% CO2 incubator at 37° C. Cells were sub-cultured at a ratio of 1:5 when grown with confluency of 70-80% in the culture container. Cells cultured on the day of cell line transplantation were centrifuged (1,000 rpm, 5 minutes) to discard the supernatant and to make cell suspension with D-PB S. Then, the cell suspension was mixed with Matrigel at a ratio of 1:1 (5×10^7 cells/mL). BALB/c Nude mouse, [NT]-Foxnlnu/CrlOri, SPF was used. Sex, number, age, and body weight range of animals at receipt: The mice (65 mice) were male, 5 weeks old, and had about 14.5-19.6 g weight at the receipt. Cell transplantation: After the quarantine-acclimation period, the body weight measurement and cell transplantation in healthy animals were performed. […] Prepared cell (1×10^7 cells/0.2 mL) suspension was injected subcutaneously into the right flank with disposable syringes. […] Group assignment: After transplanting cells, each tumor size was monitored for 65 animals. When tumor volume reached within 87-112 mm^3, 50 animals were assigned to the respective groups with an average tumor volume of about 99 mm^3. Based on the tumor volume, animals were selected and randomly distributed into 5 groups (10 animals/group). Dosing Route: Oral administration. The route of administration was oral because the clinical application of the test substance is oral. Method and frequency of administration: For negative control and test substance, oral administration was performed once a day for 4 weeks for a total of 28 times using a disposable syringe. For positive control, intraperitoneal administration was performed once a week for 4 weeks for a total of 4 times using a disposable syringe. Dosing Route: The dose levels of the test substance were selected at 150, 300, and 600 mg/kg. The dose level of the positive substance was selected at 2 mg/kg. The dose volume was selected at 10 mL/kg for all groups, and the individual dose was calculated based on the bodyweight of animals just prior to dosing. Measurement of tumor volume: The largest diameter (a) and the smallest diameter (b) of each tumor were measured using calipers twice a week during the observation period. The tumor volume (TV) was calculated twice a week according to the following formula: TV (mm^3)=(a (mm)×b^2 (mm^2))/2. The volume of a tumor before administration to each animal was set to the value measured at the time of group assignment. Tumor removal and measurement of body weight: After the observation period, animals were anesthetized by inhalation of isoflurane. After the tumor was extracted, the weight of the removed tumor was recorded. The tumor growth inhibition rate (IR) was calculated using the following formula: IR (%)=(1-T/C)×100, where T is a mean tumor weight in the test substance group, and positive substance group, and C is a mean tumor weight in the negative control group.

[2] = test system: human A549 lung cancer xenografts; test: TUNEL staining of extracted A549 xenograft tumors (apoptosis counting and grading); assay type: in vivo, BALB/c Nude mouse; conditions: for Apoptosis counting No. (group mean ± S.D.): TUNEL positive cells per 1 mm^2; for Number of apoptotic cells in the tumor compared to the negative control group (G1): G5, 2 mg/kg, TUNEL
From the text: Histopathological test: The extracted tumors were fixed in 10% neutral buffered formalin solution (10% neutral buffered formalin). After sectioning the tumors to a certain thickness (about 3 mm), those were subjected to the general preparation procedure, embedded in paraffin, cut into 4 to 5 μm size, and tissue sections were stained with Hematoxylin and Eosin (H&E) and TUNEL. IHC (Immunohistochemistry) slides, cut into 4 to 5 μm size, were produced and sent to the sponsor (Negative Control Group (G1), Test substance 2 (G3, Animal ID Nos.: 1301, 1302, 1303, 1307, 1310), Test substance 3 (G4, Animal ID Nos.: 1401, 1402, 1404, 1408, 1409)). Determination of TUNEL staining results: After histological examination of the entire cross-section of the tumor for grading (±, +, ++, +++, ++++) of apoptosis, the nucleated brown stained cells were read as […] was counted. The apoptosis of the tumor was determined by the number of positive cells per […] (1 mm^2). The apoptosis of the tumor was determined by calculating the average number of positive cells and graded into the corresponding severity. The number of positive cells in which apoptosis occurred was determined by counting the number of positive cells per unit area (1 mm^2). Histopathological test (Table 7, FIGS. 7-11): The extracted fixed tumor was cut to a certain thickness (about 3 mm), then subjected to general tissue treatment, paraffin-embedded to produce blocks, and tissue sections of 4 to 5 μm in size were prepared. Then, Hematoxylin & Eosin (H&E) staining and TUNEL staining were performed.

[3] = test system: human A549 lung cancer xenografts; test: Hematoxylin & Eosin (H&E) staining of extracted A549 xenograft tumors (necrosis grading); assay type: in vivo, BALB/c Nude mouse
From the text: Histopathological test: The extracted tumors were fixed in 10% neutral buffered formalin solution (10% neutral buffered formalin). After sectioning the tumors to a certain thickness (about 3 mm), those were subjected to the general preparation procedure, embedded in paraffin, cut into 4 to 5 μm size, and tissue sections were stained with Hematoxylin and Eosin (H&E) and TUNEL. IHC (Immunohistochemistry) slides, cut into 4 to 5 μm size, were produced and sent to the sponsor (Negative Control Group (G1), Test substance 2 (G3, Animal ID Nos.: 1301, 1302, 1303, 1307, 1310), Test substance 3 (G4, Animal ID Nos.: 1401, 1402, 1404, 1408, 1409)). Determination of Hematoxylin & Eosin (H&E) staining results: Necrosis of tumors was assessed by grading (±, +, ++, +++, ++++) the extent of necrosis in the whole section of the tumor. Necrosis was evaluated by morphological changes such as collapse or disappearance of the nucleus and eosinophilic change of cytoplasm. The extent of tumor necrosis was determined by the percentage of the following necrosis area. Histopathological test (Table 7, FIGS. 7-11): The extracted fixed tumor was cut to a certain thickness (about 3 mm), then subjected to general tissue treatment, paraffin-embedded to produce blocks, and tissue sections of 4 to 5 μm in size were prepared. Then, Hematoxylin & Eosin (H&E) staining and TUNEL staining were performed.

solubility (Solubility in water): > 1000 mg/mL
SMILES: CC(C)(C)/[N+]([O-])=C\c1ccc(S(=O)(=O)O)cc1S(=O)(=O)O [2,4-ds-PBN, 2,4-disulfonyl a-phenyl tert-butyl nitrone]

SMILES: N.N.[Cl][Pt][Cl] [cisplatin, Cis-Diammineplatinum (II) dichloride, reference compound]
Tumor weights (mean) ([1]; G5, 2 mg/kg I.P. once a week for 4 weeks, tumors weighed at day 29): 0.37 g | Tumor volume (mean) ([1]; day 1 (before administration)): 99 mm^3 | Tumor volume (mean) ([1]; day 5 after administration): 152 mm^3 | Tumor volume (mean) ([1]; day 8 after administration): 171 mm^3 | Tumor volume (mean) ([1]; day 12 after administration): 176 mm^3 | Tumor volume (mean) ([1]; day 15 after administration): 199 mm^3 | Tumor volume (mean) ([1]; day 19 after administration): 250 mm^3 | Tumor volume (mean) ([1]; day 22 after administration): 314 mm^3 | Tumor volume (mean) ([1]; day 26 after administration): 385 mm^3 | Tumor volume (mean) ([1]; day 29 after administration): 481 mm^3 | Tumor growth inhibition rate (IR) ([1]; G5, 2 mg/kg I.P., IR=(1-T/C)x100 from mean tumor weights, day 29): 59.8% | Tumor volume and size compared to the negative control ([1]; G5, 2 mg/kg, end of the observation period): statistically significant decrease in tumor volume and size | Apoptosis grade + : number of animals ([2]; G5, 2 mg/kg I.P., N=10): 2 | Apoptosis grade ++ (moderate): number of animals ([2]; G5, 2 mg/kg I.P., N=10): 0 | Apoptosis grade +++ (marked): number of animals ([2]; G5, 2 mg/kg I.P., N=10): 0 | Apoptosis grade ++++ (severe): number of animals ([2]; G5, 2 mg/kg I.P., N=10): 0 | Apoptosis grade ± (minimal): number of animals ([2]; G5, 2 mg/kg I.P., N=10): 8 | Apoptosis counting No. (group mean ± S.D.) ([2]; G5, 2 mg/kg I.P.): 87.5 ± 50.6 No./mm^2 | Apoptosis counting No. (group mean ± S.D.) ([2]; G5, 2 mg/kg I.P., listed as Cisplatin): 87.5±50.6 No./mm^2 | Number of apoptotic cells in the tumor compared to the negative control group (G1) [2]: significant increase in the number of apoptotic cells | Number of apoptotic cells in the tumor compared to the negative control group (G1) ([2]; listed as Cisplatin): no statistically significant difference | Necrosis grade + : number of animals ([3]; G5, 2 mg/kg I.P., N=10): 2 | Necrosis grade ++ (moderate): number of animals ([3]; G5, 2 mg/kg I.P., N=10): 2 | Necrosis grade +++ (marked): number of animals ([3]; G5, 2 mg/kg I.P., N=10): 0 | Necrosis grade ++++ (severe): number of animals ([3]; G5, 2 mg/kg I.P., N=10): 0 | Necrosis grade ± (minimal): number of animals ([3]; G5, 2 mg/kg I.P., N=10): 6 | Severity of necrosis compared to the negative control group (G1) ([3]; G5, 2 mg/kg, H&E): does not significantly different
